Reference: US20140329863A1 (priority 2011, published 2014)
Like-named read-outs stand apart in the source and are kept apart here.

Experiments:
[1] = Hepatic microsomal stability, human; conditions: for half-life at 1 μM: pH 7.4
[2] = Hepatic microsomal stability, rat; conditions: for half-life at 1 μM: Sprague-Dawley, pH 7.4
[3] = Hepatic microsome stability, mouse; format: in vitro ADME; conditions: mouse liver microsomes
Procedure: (§1) Hepatic microsomal stability assays were performed in two stages. In the first set of experiments, aliquots of the DMSO solute stocks were diluted into ACN and then into assay buffer (PBS, pH 7.4, ±0.05% PS80). Final experimental solute concentrations were 1 μM (0.6% ACN, 0.01% DMSO). Commercially available mouse, rat, or human hepatic microsomes (˜0.5 mg/ml final concentration), and NADPH (1 mM) or PBS were added. The resulting mixture was incubated at 37° C., and aliquots removed at 0, 1, 10, 30 and 60 min, then quenched with ACN containing 2 μM carbamazepine (internal standard). […] Duplicate incubations were run for each time-point. The percentage of solute remaining at the end of the incubation was used to determine solute half-life.
(§2) These were diluted 500-fold into 1 mL of microsomal incubation mixture to yield a final concentration of 1 μM. The incubation mixture was composed of 100 mM phosphate buffer, pH 7.4, and NADPH regenerating system (BD Biosciences NADPH Regenerating System Solutions A & B). This mixture was preincubated at 37° C. for 5 min in an Eppendorf Thermo mixer, and the reaction initiated by addition of 0.5 mg (25 μl of a 20 mg/mL solution) of liver microsomes. Aliquots (100 μl) were withdrawn at 0, 5, 15, 30, and 60 min, and added to 100 μl ACN containing internal standard. […] The percentage of solute remaining at the end of the incubation was used to determine species-specific values of scaled intrinsic clearance, hepatic clearance, and predicted hepatic extraction based upon the calculations below {Obach, 1999 #9097}.
(§3) for which mg microsomal protein/gm liver was 45 for all species, and gm liver/kg body weight were 32 for dog, 88 for mouse, 40 for rat and 25 for human.
(§4) Clh=(Q*Clint,scaled)/(Q+Clint,scaled)
(§5) for which Q was hepatic blood flow; values of 90 ml/min/kg for mouse, 66 ml/min/kg for rat, and 21 ml/min/kg for human were used.
(§6) for which ER estimates the amount of compound cleared during a single pass through the liver (Low ER<0.3, moderate ER 0.3-0.7, high ER>0.7).

[4] = test system: PrP^Sc in dividing ScN2a-cl3 cells; format: cell-based, mouse
[5] = Hepatic microsomal stability, mouse; conditions: for half-life at 1 μM: CD-1, mouse, pH 7.4
[6] = Multiple-dose (three-day) pharmacokinetic studies in FVB mice, drug in liquid diet; format: in vivo, mouse; conditions: for concentration at 3 days: FVB, mouse, oral
Procedure: Aminothiazole analog (e.g., 4.5 g of 27) was added to 15 mL of pure PEG400, vortexed and sonicated to ensure dissolution, then stored at −4° C. until needed. This highly concentrated PEG400 solution was subsequently diluted to final dosing concentrations, where the volume added was composed of homogenized solid rodent feed, cocoa (taste masking agent), and water. Wild-type FVB mice weigh ˜25 gm and typically drink 20 mL of liquid diet per day, allowing an estimate of daily drug consumption. A single dosing cohort consisted of three mice in a shared cage and liquid diet was provided at the start of the study in sufficient volume to last for the entire three-day trial (˜200 mL). At the end of the three-day dosing period, animals were euthanized by CO2, followed by collection of plasma (cardiac puncture) and removal of whole brain. Heparinized blood was centrifuged to separate plasma and both plasma and brain samples were stored at −80° C. prior to analysis. Plasma samples were prepared for analysis by precipitating proteins and reconstituting the remaining fraction with HPLC mobile phase. Brain samples were typically prepared by four-fold dilution with water after weighing, then homogenized using bead-beater or Polytron™ resulting in a highly concentrated solution that was further diluted with mobile phase as appropriate in preparation for bioanalytical analysis using LC-MS. Analysis was by LC-MS (Shimadzu dual-HPLC pumps, C18 analytical column, with detection using an Applied Biosystems API-4000 triple quadrupole mass spectrometer).
Ten compounds were selected from among the 34 2-AMTs for three-day multiple-dose PK studies at PO doses ranging from 40-210 mg/kg. Selection was based on diversity in potency, chemical structure, and a range of physicochemical properties. We used a liquid diet to facilitate easy drug administration, as well as serve as the daily source of all water and food. This approach was chosen because the mouse bioassay studies that would be used to assess drug effects on survival would be expected to run for 110 to 400 days, or more; gavage dosing for such a long period is not feasible and more stressful to mice. For the multiple-dose PK studies, 4.5 g of the 2-AMT analogs was added to 15 mL of pure PEG400, vortexed and sonicated to ensure dissolution, then stored at −4° C. until needed. This highly concentrated PEG400 solution was subsequently diluted to final dosing concentrations and added to the rodent liquid diet, cocoa (taste-masking agent), and water.
Wild-type FVB mice weigh ˜25 g and typically drink 20 mL of liquid diet per day, allowing an estimate of daily drug consumption. A single dosing cohort consisted of three mice in a shared cage and liquid diet was provided at the start of the study in sufficient volume (˜200 mL) to last for the entire three-day period. At the end of the dosing period, animals were euthanized by CO2, followed by collection of plasma (cardiac puncture) and removal of whole brain. Samples were processed and stored as described above for the 10 mg/kg single-dose studies.
Plasma and brain homogenate samples were extracted using a protein-precipitation method and analyzed by specific LC/MS/MS methods developed for each compound dosed in vivo. The analytical method accuracy and precision were monitored by analyzing quality control (QC) samples that were prepared by the same methods as the plasma or brain homogenate samples. The brain and plasma concentration data were used to calculate the maximal concentration (Cmax), area under the concentration-time curve (AUClast), and absolute bioavailability (% F) by noncompartmental analysis with sparse sampling performed using Phoenix WinNonlin 6.1 software (Pharsight, Mountain View, Calif.).

[7] = Hepatic microsome stability, human; format: in vitro ADME; conditions: for hepatic extraction ratio (ER): human liver microsomes
Procedure: as §1, §2, §3, §4, §5, §6

ScN2a-c13 cells = assay: cells; format: cell-based; conditions: Mus musculus; N=3; read-out: EC50 by calcein for cell viability
[8] = Table 29, 2-AMT analogs tested for potency, usually n = 3 or more
[9] = brain, 3 days in liquid diet, 40, 80, 130, 210 mg/kg/day, read-out: brain concentration
[10] = plasma, 3 days in liquid diet, 40, 80, 130, 210 mg/kg/day, read-out: plasma concentration

Row | SMILES | % remaining after a 60-min incubation, Human ([1]; human liver microsomes) | half-life at 1 μM ([1]; human, human liver microsomes) | half-life at 1 μM ([1]; human, liver microsomes) | half-life at 1 μM ([2]; rat) | % remaining after a 60-min incubation, Rat [2] | Hepatic Extraction Ratio Rat ([2]; rat microsomes) | t1/2 Rat (extrapolated) ([2]; rat microsomes) | hepatic extraction ratio (ER) [3] | EC50 ([4]; AMT analogs tested for potency) | EC50 [4, 8] | half-life at 1 μM ([5]; liver microsomes) | half-life at 1 μM ([5]; mouse liver microsomes) | % remaining after a 60-min incubation, Mouse ([5]; mouse liver microsomes) | Hepatic Extraction Ratio Mouse ([5]; mouse microsomes) | concentration at 3 days [6, 9] | concentration at 3 days [6, 10] | hepatic extraction ratio (ER) [7] | half-life at 1 μM ([1]; both, human, liver microsomes) | half-life at 1 μM ([5]; female, liver microsomes) | half-life at 1 μM ([5]; male, liver microsomes) | also measured
1 | COc1ccc(-c2csc(Nc3ccc4ccccc4n3)n2)cc1OC [IND47, [4-(3,4-Dimethoxy-phenyl)-thiazol-2-yl]-quinolin-2-yl-amine] | 113% | > 60 min | > 60 min | > 60 min | 50% | 0.5 | 69* min | lower to moderate | 426 nM | 426 nM | 72 min | > 60 min | 56% | 0.6 | ≤ 1 µM | ≤ 1 µM | lower to moderate |  |  |  | 
2 | C(=N\Nc1ccc(-c2cnco2)cc1)/c1ccncc1 [IND54304, reference compound] |  |  |  |  |  |  |  | moderate (moderate ER 0.3-0.7) |  |  |  |  |  |  |  |  | low (Low ER<0.3) | 130 min | 34 min | 25 min | Hepatic Extraction Ratio Human ([1]; human (mixed) microsomes, gender study): 0.34; Hepatic Extraction Ratio Rat Female ([2]; female rat microsomes): 0.27; Hepatic Extraction Ratio Rat Male ([2]; male rat microsomes): 0.27; Hepatic Extraction Ratio Mouse Female ([5]; female mouse microsomes): 0.64; Hepatic Extraction Ratio Mouse Male ([5]; male mouse microsomes): 0.71; brain concentration as multiple of EC50 ([6]; 3 days in liquid diet, 100 mg/kg/day): ~20 ×EC50; concentration at 3 days ([6]; brain, 3 days in liquid diet, 100 mg/kg/day, read-out: brain concentration): ~10 µM
3 | c1ccc2cc(Nc3nc(-c4ccncc4)cs3)ncc2c1 [IND85, Isoquinolin-3-yl-(4-pyridin-4-yl-thiazol-2-yl)-amine] | 66% | 53 min | 53 min | 18 min | 32% | 0.8 |  | higher | 307 nM | 307 nM | 15 min | 15 min | 6% | 0.9 | ≤ 1 µM | ≤ 1 µM | higher |  |  |  | Hepatic Extraction Ratio Human ([1]; human): 0.7; Hepatic Extraction Ratio Human ([1]; human microsomes): 0.7; Hepatic Extraction Ratio Rat ([2]; rat): 0.8; Hepatic Extraction Ratio Mouse ([5]; mouse): 0.9
4 | Cc1ccc(Nc2nc(-c3cc(-c4ccccc4)no3)cs2)nc1 [IND33, (5-Methyl-pyridin-2-yl)-[4-(3-phenyl-isoxazol-5-yl)-thiazol-2-yl]-amine] | 42% | 54 min | 54 min | > 60 min | 73% | 0.3 | 151* min | lower to moderate | 940 nM | 940 nM | 99 min | > 60 min | 111% | 0.5 |  |  | lower to moderate |  |  |  | Hepatic Extraction Ratio Human ([1]; human): 0.7; Hepatic Extraction Ratio Human ([1]; human microsomes): 0.7; concentration at 3 days ([6]; brain, 3 days in liquid diet, 130 mg/kg dose, read-out: brain concentration): ~30 µM
5 | Cc1ccnc(Nc2nc(-c3ccc(-c4ccccn4)s3)cs2)c1 [IND81, (4-Methyl-pyridin-2-yl)-[4-(5-pyridin-2-yl-thiophen-2-yl)-thiazol-2-yl]-amine] | 48% | 52 min | 52 min | 58 min | 48% |  |  |  |  |  | 19 min | 19 min | 10% |  |  |  |  | 40 min | 26 min | 23 min | EC50 (ScN2a-c13 cells): > 10000 nM; metabolism in HLM incubations ([7]; pooled human liver microsomes, 1 μM, 60 min, with or without CYP inhibitors): relatively high turnover
